Experimental data: patent US20070275961A1, “Triazolo ' 1, 5-A ! Pyrimidines and Their Use in Medicine” (VERNALIS (CAMBRIDGE) LIMITED., priority 2003, published 2007)
pIC50: −log10 of the molar value. Read-outs that look alike come from different tables or passages of the source.

Key:
Assay type in all cases: biochemical
[1] = biological target: CDK2 enzyme, complexed with cyclin A (Homo sapiens, UniProt P24941); assay: CDK2 cyclin dependent kinase assay, phosphorylation of synthetic peptide […] (33P-ATP filtration); conditions: 0.1 mM ATP
Method: (§1) The assay mixture containing the inhibitor and CDK2 enzyme, complexed with cyclin A (0.4 U/ml) was mixed together in a microtiter plate in a final volume of 50 μl and incubated for 40 min at 30° C. The assay mixture contained 0.1 mM unlabeled ATP, 0.01 μCi/μl ^33P-γ-ATP, 0.03 mM peptide, 0.1 mg/ml BSA, 7.5 mM magnesium acetate, 50 mM HEPES-NaOH, pH 7.5. The reaction was stopped by adding 50 μl of 50 mM phosphoric acid. 90 μl of the mixture were transferred to a pre-wetted 96-well Multiscreen MAPHNOB filtration plate (Millipore) and filtered on a vacuum manifold. The filter plate was washed with three successive additions of 200 μl 50 mM phosphoric acid and then with 100 μl methanol. The filtration plate was dried for 10 min at 65° C., scintillant added and phosphorylated peptide quantified in a scintillation counter (Trilux, PerkinElmer).
HEPES is N-[2-hydroxyethyl]piperazine-N′-[2-ethanesulfonic acid]. BSA is bovine serum albumin.

[2] = biological target: T1, PDK1 enzyme (Homo sapiens, UniProt O15530); assay: PDK1 3'-phosphoinositide-dependent kinase assay, phosphorylation of synthetic peptide (33P-ATP filtration); conditions: 0.01 mM ATP, read-out: PDK1 IC50
T1 sequence (O15530 1-556): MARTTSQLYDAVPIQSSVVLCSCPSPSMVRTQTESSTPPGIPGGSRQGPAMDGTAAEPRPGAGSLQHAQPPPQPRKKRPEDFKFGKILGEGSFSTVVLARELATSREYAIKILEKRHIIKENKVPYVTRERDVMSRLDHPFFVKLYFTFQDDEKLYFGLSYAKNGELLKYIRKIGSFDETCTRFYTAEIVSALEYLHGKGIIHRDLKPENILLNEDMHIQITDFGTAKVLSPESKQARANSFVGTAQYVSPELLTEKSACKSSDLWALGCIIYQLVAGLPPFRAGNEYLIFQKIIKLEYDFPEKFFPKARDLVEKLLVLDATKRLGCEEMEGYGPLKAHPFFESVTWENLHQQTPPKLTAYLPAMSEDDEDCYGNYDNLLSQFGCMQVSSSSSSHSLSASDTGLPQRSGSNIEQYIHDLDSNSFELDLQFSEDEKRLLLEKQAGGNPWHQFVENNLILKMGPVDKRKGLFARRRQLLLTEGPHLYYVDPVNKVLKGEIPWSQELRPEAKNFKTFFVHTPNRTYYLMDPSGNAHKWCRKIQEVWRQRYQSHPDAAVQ
Method: as §1, with “and PDK1 enzyme” for “and CDK2 enzyme, complexed with cyclin A (0.4 U/ml)”, “for 60” for “for 40”, “contained 0.01” for “contained 0.1”, “^33P-γ-ATP, 0.075” for “^33P-γ-ATP, 0.03”, “acetate, 0.05 M Tris.HCl,” for “acetate, 50 mM HEPES-NaOH,”, “pH 7.5, 0.5% 2-mercaptoethanol.” for “pH 7.5.”

[3] = biological target: T2, Chk1 (Homo sapiens, UniProt O14757); assay: Chk1 kinase assay, phosphorylation of Chktide (33P-ATP filtration); conditions: 0.01 mM ATP, read-out: Chk1 IC50
T2 sequence (O14757 1-476): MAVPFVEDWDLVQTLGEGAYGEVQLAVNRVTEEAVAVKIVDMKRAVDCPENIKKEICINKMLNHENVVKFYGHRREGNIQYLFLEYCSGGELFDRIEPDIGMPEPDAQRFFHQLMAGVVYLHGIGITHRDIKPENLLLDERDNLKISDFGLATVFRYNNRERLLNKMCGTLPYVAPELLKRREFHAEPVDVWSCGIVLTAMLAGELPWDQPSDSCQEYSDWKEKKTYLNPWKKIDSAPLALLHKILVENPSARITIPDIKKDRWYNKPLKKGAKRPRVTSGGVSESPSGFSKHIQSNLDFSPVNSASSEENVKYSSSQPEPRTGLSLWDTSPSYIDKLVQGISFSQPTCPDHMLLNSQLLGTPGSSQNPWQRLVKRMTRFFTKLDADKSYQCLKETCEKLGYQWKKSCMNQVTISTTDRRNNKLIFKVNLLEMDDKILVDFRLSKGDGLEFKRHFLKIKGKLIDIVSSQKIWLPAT
Method: Assays for the Chk1 kinase activity were carried out by monitoring the phosphorylation of a synthetic peptide Chktide with the amino acid sequence, […]. The assay mixture containing the inhibitor and Chk1 enzyme was mixed together in a microtiter plate in a final volume of 50 μl and incubated for 40 minutes at 30° C.
The assay mixture contained 0.01 mM unlabeled ATP, 0.5 μCi ^33P-γ-ATP, 30 μM Chktide, 0.1 mg/ml BSA, 50 mM Hepes-NaOH pH 7.5 and 11 nM GST-Chk1 enzyme. The reaction was stopped by adding 50 μl of 50 mM phosphoric acid. 90 μl of the mixture was transferred to a pre-wetted 96-well Multiscreen MAPHNOB filtration plate (Millipore) and filtered on a vacuum manifold. The filter plate was washed with three successive additions of 200 μl 50 mM phosphoric acid and then with 100 μl methanol. The filtration plate was dried for 10 min at 65° C., scintillant added and phosphorylated peptide quantified in a scintillation counter (Trilux, PerkinElmer).

| Compound | pIC50 ([1]; Table 2) | pIC50 ([2]; Table 2) | pIC50 ([3]; Table 2) | pIC50 ([1]; Table 1) | pIC50 ([2]; Table 1) | pIC50 ([3]; Table 1) | other results |
| --- | --- | --- | --- | --- | --- | --- | --- |
| CN1CCN(c2cc(Nc3ccc(S(C)(=O)=O)cc3)n3ncnc3n2)CC1 [Example 63] | 4.34 | < 3.70 | < 3.70 | – | – | – | – |
| CCOc1cc(Nc2ccc(S(N)(=O)=O)cc2)n2ncnc2n1 [Example 12] | – | – | – | 4.89 | < 3.70 | < 3.70 | – |
| CC[C@H](CO)Nc1cc(Nc2ccc(S(C)(=O)=O)cc2)n2ncnc2n1 [Example 69] | 5.74 | < 3.70 | < 3.70 | – | – | – | – |
| CN(C)S(=O)(=O)c1ccc(Nc2cc(Cl)nc3ncnn23)cc1 [Example 8] | – | – | – | 4.32 | < 3.70 | < 3.70 | – |
| CCc1cc(OCCN)cc(-c2cc(Nc3ccc(C(N)=O)cc3)nc3ncnn23)c1 [Example 166] | – | – | – | – | – | – | pIC50 ([1]; Table 4): 5.59; pIC50 ([2]; Table 4): 5.92; pIC50 ([3]; Table 4): 5.57 |
| Cc1ccc(-c2cc(Nc3ccc(C(N)=O)cc3)nc3ncnn23)cc1 [Example 138] | – | – | – | – | – | – | pIC50 ([1]; Table 3): < 3.70; pIC50 ([2]; Table 3): 5.38; pIC50 ([3]; Table 3): 4.58 |
| CN(C)CCN(C)c1cc(Nc2ccc(S(C)(=O)=O)cc2)n2ncnc2n1 [Example 73] | 4.65 | < 3.70 | < 3.70 | – | – | – | – |
| NC(=O)c1ccc(Nc2cc(-c3ccc4c(c3)OCO4)n3ncnc3n2)cc1 [Example 137] | – | – | – | – | – | – | pIC50 ([1]; Table 3): < 3.70; pIC50 ([2]; Table 3): 4.54; pIC50 ([3]; Table 3): 4.85 |
| NC(=O)c1ccc(Nc2cc(Cc3ccccc3)n3ncnc3n2)cc1 [Example 123] | – | – | – | – | – | – | pIC50 ([1]; Table 3): < 3.70; pIC50 ([2]; Table 3): < 3.70; pIC50 ([3]; Table 3): 4.50 |
| CC(=O)Nc1cccc(Nc2cc(-c3cccc(F)c3)n3ncnc3n2)c1 [Example 131] | – | – | – | – | – | – | pIC50 ([1]; Table 3): < 3.70; pIC50 ([2]; Table 3): 4.16; pIC50 ([3]; Table 3): 4.58 |
| CCN(CC)CCNC(=O)c1ccc(Nc2cc(C)n3ncnc3n2)cc1 [Example 120] | – | – | – | – | – | – | pIC50 ([1]; Table 3): < 3.70; pIC50 ([2]; Table 3): < 3.70; pIC50 ([3]; Table 3): 6.09 |
| Cc1cc(Nc2ccc(S(C)(=O)=O)cc2)n2ncnc2n1 [Example 77] | 3.90 | < 3.70 | < 3.70 | – | – | – | – |
| NC(=O)c1ccc(Nc2cc(-c3cccc(OCc4cccnc4)c3)n3ncnc3n2)cc1 [Example 145] | – | – | – | – | – | – | pIC50 ([1]; Table 4): 4.64; pIC50 ([2]; Table 4): 5.76; pIC50 ([3]; Table 4): 5.01 |
| O=S(=O)(c1ccccc1)c1ccc(Nc2cc(Cl)nc3ncnn23)cc1 [Example 88] | 5.22 | < 3.70 | 4.92 | – | – | – | – |
| Oc1ccc(Cl)cc1Nc1cc(Cl)nc2ncnn12 [Example 32] | – | – | – | 4.50 | < 3.70 | < 3.70 | – |
| CCN(CC)CCNC(=O)c1ccc(Nc2cc(-c3cccc(C#N)c3)nc3ncnn23)cc1 [Example 28] | – | – | – | 4.73 | < 3.70 | < 3.70 | – |
| CCN(CC)c1cc(Nc2ccc(S(=O)(=O)C(F)(F)F)cc2)n2ncnc2n1 [Example 70] | 5.57 | < 3.70 | < 3.70 | – | – | – | – |
| CN(C)c1ccc(Nc2cc(Cl)nc3ncnn23)cc1 [Example 21] | – | – | – | 4.23 | < 3.70 | < 3.70 | – |
| Clc1cc(Nc2ccccc2)n2ncnc2n1 [Example 75] | 4.20 | < 3.70 | < 3.70 | – | – | – | – |

| Compound | pIC50 ([1]; Table 2) | pIC50 ([2]; Table 2) | pIC50 ([3]; Table 2) | pIC50 ([1]; Table 1) | pIC50 ([2]; Table 1) | pIC50 ([3]; Table 1) | other results |
| --- | --- | --- | --- | --- | --- | --- | --- |
| NC(=O)c1ccc(Nc2cc(-c3cccc(F)c3)n3ncnc3n2)cc1 [Example 117] | – | – | – | – | – | – | pIC50 ([1]; Table 3): < 3.70; pIC50 ([2]; Table 3): 5.14; pIC50 ([3]; Table 3): 5.52 |
| CCN(CC)CCOc1cccc(-c2cc(Nc3ccc(C(N)=O)cc3)nc3ncnn23)c1 [Example 146] | – | – | – | – | – | – | pIC50 ([1]; Table 4): 5.26; pIC50 ([2]; Table 4): 5.12; pIC50 ([3]; Table 4): 4.68 |
| CS(=O)(=O)c1ccc(Nc2cc(N3CCC(C(N)=O)CC3)nc3ncnn23)cc1 [Example 89] | 4.44 | < 3.70 | < 3.70 | – | – | – | – |
| NS(=O)(=O)c1ccc(CNc2cc(Cl)nc3ncnn23)cc1 [Example 38] | – | – | – | 4.82 | < 3.70 | < 3.70 | – |
| CCNc1cc(Nc2ccc(S(C)(=O)=O)cc2)n2ncnc2n1 [Example 80] | 4.87 | < 3.70 | < 3.70 | – | – | – | – |
| O=C(O)c1ccc(Nc2cc(Cl)nc3ncnn23)cc1 [Example 25] | – | – | – | 4.03 | < 3.70 | < 3.70 | – |
| Clc1cc(NCc2ccncc2)n2ncnc2n1 [Example 56] | – | – | – | 4.36 | < 3.70 | < 3.70 | – |
| O=S(=O)(c1ccc(Nc2cc(Cl)nc3ncnn23)cc1)N1CCC(O)CC1 [Example 7] | – | – | – | 4.64 | < 3.70 | < 3.70 | – |
| CC(C)(C)CNc1cc(Nc2ccc(S(C)(=O)=O)cc2)n2ncnc2n1 [Example 94] | 5.82 | < 3.70 | < 3.70 | – | – | – | – |
| CC(C)c1cc(Nc2ccc(C(N)=O)cc2)nc2ncnn12 [Example 115] | – | – | – | – | – | – | pIC50 ([1]; Table 3): 3.83; pIC50 ([2]; Table 3): < 3.70; pIC50 ([3]; Table 3): 4.08 |
| CN(C)Cc1ccccc1-c1cc(Nc2cc(Cl)ccc2O)n2ncnc2n1 [Example 26] | – | – | – | < 3.70 | < 3.70 | 3.98 | – |
| O=S(=O)(c1ccc(Nc2cc(-c3cccc(F)c3)n3ncnc3n2)cc1)N1CCOCC1 [Example 130] | – | – | – | – | – | – | pIC50 ([1]; Table 3): < 3.70; pIC50 ([2]; Table 3): 4.47; pIC50 ([3]; Table 3): 4.57 |
| NS(=O)(=O)c1ccc(Nc2cc(N3CCCCC3)nc3ncnn23)cc1 [Example 34] | – | – | – | 6.21 | < 3.70 | < 3.70 | – |
| CS(=O)(=O)c1ccc(Nc2cc(NC3CC3)nc3ncnn23)cc1 [Example 101] | 4.82 | < 3.70 | < 3.70 | – | – | – | – |
| CC(C)c1cc(Nc2ccc(S(C)(=O)=O)cc2)n2ncnc2n1 [Example 78] | 5.13 | < 3.70 | < 3.70 | – | – | – | – |
| CCCc1cc(Nc2ccc(S(C)(=O)=O)cc2)n2ncnc2n1 [Example 74] | 4.85 | < 3.70 | < 3.70 | – | – | – | – |
| CS(=O)(=O)c1ccc(Nc2cc(-c3cccc(F)c3)n3ncnc3n2)cc1 [Example 119] | – | – | – | – | – | – | pIC50 ([1]; Table 3): < 3.70; pIC50 ([2]; Table 3): 3.94; pIC50 ([3]; Table 3): 5.59 |
| NC(=O)c1ccc(Nc2cc(-c3cccc(OCC4CCCNC4)c3)n3ncnc3n2)cc1 (stereo not drawn) [Example 148] | – | – | – | – | – | – | pIC50 ([1]; Table 4): 5.27; pIC50 ([2]; Table 4): 4.98; pIC50 ([3]; Table 4): 4.77 |
| COc1ccc(-c2cc(Nc3cccc(Cl)c3)n3ncnc3n2)nc1 [Example 54] | – | – | – | < 3.70 | < 3.70 | < 3.70 | – |
